Values quoted from earlier work, collected in PMC11571109, “Covalent Inhibitors of S100A4 Block the Formation of a Pro-Metastasis Non-Muscle Myosin 2A Complex” (Journal of Medicinal Chemistry, 2024).

Test system: S100A4
Set-up: method as in PMID 20421509
Details: by inducing oligomerization; read-out: IC50 S100A4 inhibition; cited from earlier work

For `c1ccc2c(c1)Nc1ccccc1S2` [phenothiazine], the IC50 is given as ~100 µM.
